In PubChem BioAssay AID248 (DTP/NCI, 2004):
Where “and” joins values, the source holds several entries; their conditions need not be identical. Identical values can stand only once. Inconclusive results and toxic doses are left out. Cut-off read from the data, not from the text of the source: active = T/C of 150% or more; inactive = T/C below 125%.

System: L1210 leukemia ip in BDF1 mice, survival T/C
Assay: NCI In Vivo Anticancer Drug Screen. Data for tumor model L1210 Leukemia (intraperitoneal) in B6D2F1 (BDF1) mice
Settings: endpoint: mean survival time, higher = longer survival
Outline: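 Tumor was transplanted into mice, which were then dosed with test compound or vehicle alone. Survival was recorded for each group, and the treated figure was expressed relative to the control figure.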

[1] = dose: 100.0 mg/kg/injection, schedule: Q04DX002 (ip), vehicle: saline with Tween-80
[2] = dose: 100.0 mg/kg/injection, schedule: Q01DX005 (ip), vehicle: Klucel (hydroxypropylcellulose) (HPC)
[3] = dose: 100.0 mg/kg/injection, schedule: Q04DX002 (ip), vehicle: Klucel (hydroxypropylcellulose) (HPC)
[4] = dose: 200.0 mg/kg/injection, schedule: Q01DX005 (ip), vehicle: Klucel (hydroxypropylcellulose) (HPC)
[5] = dose: 200.0 mg/kg/injection, schedule: Q04DX002 (ip), vehicle: Klucel (hydroxypropylcellulose) (HPC)
[6] = dose: 100.0 mg/kg/injection, schedule: Q01DX009 (ip), vehicle: saline with Tween-80
[7] = dose: 100.0 mg/kg/injection, schedule: Q04DX003 (ip), vehicle: saline with Tween-80
[8] = dose: 200.0 mg/kg/injection, schedule: Q01DX009 (ip), vehicle: saline with Tween-80
[9] = dose: 200.0 mg/kg/injection, schedule: Q04DX003 (ip), vehicle: saline with Tween-80
[10] = dose: 400.0 mg/kg/injection, schedule: Q04DX003 (ip), vehicle: saline with Tween-80
[11] = dose: 100.0 mg/kg/injection, schedule: Q01DX001 (ip), vehicle: saline
[12] = dose: 200.0 mg/kg/injection, schedule: Q01DX001 (ip), vehicle: saline
[13] = dose: 100.0 mg/kg/injection, schedule: Q04DX003 (ip), vehicle: saline
[14] = dose: 200.0 mg/kg/injection, schedule: Q04DX003 (ip), vehicle: saline

Measured: T/C

CC(=O)OCC1OC(N2C(=O)/C(=C/c3cccnc3)SC2=S)C(OC(C)=O)C(OC(C)=O)C1OC(C)=O (stereo unspecified)
inactive: dose: 25.0 mg/kg/injection, schedule: Q01DX005 (ip), vehicle: other 94 % of control | dose: 50.0 mg/kg/injection, schedule: Q01DX005 (ip), vehicle: other 96 % of control | dose: 100.0 mg/kg/injection, schedule: Q01DX005 (ip), vehicle: other 96 % of control | dose: 200.0 mg/kg/injection, schedule: Q01DX005 (ip), vehicle: other 105 % of control

CO[CH2][Pb]([c]1ccccc1)([c]1ccccc1)[c]1ccccc1
inactive: [1] 98 % of control | dose: 200.0 mg/kg/injection, schedule: Q04DX002 (ip), vehicle: saline with Tween-80 94 % of control | dose: 400.0 mg/kg/injection, schedule: Q04DX002 (ip), vehicle: saline with Tween-80 94 % of control

BrCCN1CCCCC1
inactive: dose: 1.56 mg/kg/injection, schedule: Q01DX009 (ip), vehicle: saline 104 % of control and 115 % of control | dose: 3.13 mg/kg/injection, schedule: Q01DX009 (ip), vehicle: saline 104 % of control and 112 % of control | dose: 6.25 mg/kg/injection, schedule: Q01DX009 (ip), vehicle: saline 101 % of control and 102 % of control | dose: 12.5 mg/kg/injection, schedule: Q01DX001 (ip), vehicle: saline 108 % of control | dose: 12.5 mg/kg/injection, schedule: Q04DX002 (ip), vehicle: saline 98 % of control and 106 % of control | dose: 12.5 mg/kg/injection, schedule: Q04DX003 (ip), vehicle: saline 91 % of control | dose: 25.0 mg/kg/injection, schedule: Q01DX001 (ip), vehicle: saline 105 % of control | dose: 25.0 mg/kg/injection, schedule: Q04DX002 (ip), vehicle: saline 106 % of control | dose: 25.0 mg/kg/injection, schedule: Q04DX003 (ip), vehicle: saline 96 % of control | dose: 50.0 mg/kg/injection, schedule: Q04DX002 (ip), vehicle: saline 104 % of control

[Br][Hg][Br].c1ccc(N=P(c2ccccc2)(c2ccccc2)c2ccccc2)cc1
inactive: dose: 9.38 mg/kg/injection, schedule: Q01DX001 (ip), vehicle: other 95 % of control | dose: 18.75 mg/kg/injection, schedule: Q01DX001 (ip), vehicle: other 95 % of control | dose: 37.5 mg/kg/injection, schedule: Q01DX001 (ip), vehicle: other 100 % of control

Cc1cc(CSC2=NCCN2)c(C)cc1CSC1=NCCN1
inactive: dose: 25.0 mg/kg/injection, schedule: Q04DX002 (ip), vehicle: saline with Tween-80 111 % of control | dose: 50.0 mg/kg/injection, schedule: Q04DX002 (ip), vehicle: saline with Tween-80 100 % of control | [1] 101 % of control and 109 % of control

C[N+](C)(C)c1ccc(F)c([N+](=O)[O-])c1
inactive: dose: 50.0 mg/kg/injection, schedule: Q01DX005 (ip), vehicle: Klucel (hydroxypropylcellulose) (HPC) 95 % of control | dose: 50.0 mg/kg/injection, schedule: Q01DX009 (ip), vehicle: Klucel (hydroxypropylcellulose) (HPC) 96 % of control | [2] 98 % of control | dose: 100.0 mg/kg/injection, schedule: Q01DX009 (ip), vehicle: Klucel (hydroxypropylcellulose) (HPC) 96 % of control | [3] 90 % of control | [4] 103 % of control | dose: 200.0 mg/kg/injection, schedule: Q01DX009 (ip), vehicle: Klucel (hydroxypropylcellulose) (HPC) 96 % of control | [5] 96 % of control

Nc1ccccc1SC(CC(=O)c1ccccc1)c1ccc(Cl)cc1 (stereo unspecified)
inactive: [2] 91 % of control | [3] 89 % of control | [4] 97 % of control | [5] 95 % of control | dose: 400.0 mg/kg/injection, schedule: Q01DX005 (ip), vehicle: Klucel (hydroxypropylcellulose) (HPC) 97 % of control | dose: 400.0 mg/kg/injection, schedule: Q04DX002 (ip), vehicle: Klucel (hydroxypropylcellulose) (HPC) 100 % of control

NC(=S)c1cccnc1
inactive: dose: 50.0 mg/kg/injection, schedule: Q01DX003 (ip), vehicle: Klucel (hydroxypropylcellulose) (HPC) 94 % of control | dose: 100.0 mg/kg/injection, schedule: Q01DX003 (ip), vehicle: Klucel (hydroxypropylcellulose) (HPC) 94 % of control | dose: 100.0 mg/kg/injection, schedule: Q04DX003 (ip), vehicle: Klucel (hydroxypropylcellulose) (HPC) 109 % of control | dose: 200.0 mg/kg/injection, schedule: Q01DX003 (ip), vehicle: Klucel (hydroxypropylcellulose) (HPC) 97 % of control | dose: 200.0 mg/kg/injection, schedule: Q04DX003 (ip), vehicle: Klucel (hydroxypropylcellulose) (HPC) 111 % of control | dose: 400.0 mg/kg/injection, schedule: Q04DX003 (ip), vehicle: Klucel (hydroxypropylcellulose) (HPC) 109 % of control

O=[N+]([O-])c1cc(Cl)c(O)c([N+](=O)[O-])c1O
inactive: dose: 75.0 mg/kg/injection, schedule: Q01DX001 (ip), vehicle: carboxymethylcellulose (CMC) 103 % of control

ClCCN(CCCl)CCCN1c2ccccc2Sc2ccccc21
inactive: dose: 6.25 mg/kg/injection, schedule: Q01DX009 (ip), vehicle: saline with Tween-80 109 % of control | dose: 12.5 mg/kg/injection, schedule: Q01DX009 (ip), vehicle: saline with Tween-80 115 % of control | dose: 12.5 mg/kg/injection, schedule: Q04DX003 (ip), vehicle: saline with Tween-80 97 % of control | dose: 16.0 mg/kg/injection, schedule: Q04DX003 (ip), vehicle: saline with Tween-80 114 % of control | dose: 16.0 mg/kg/injection, schedule: Q04DX003 (ip), vehicle: saline 100 % of control | dose: 25.0 mg/kg/injection, schedule: Q04DX003 (ip), vehicle: saline with Tween-80 97 % of control | dose: 26.0 mg/kg/injection, schedule: Q04DX003 (ip), vehicle: saline 107 % of control | dose: 35.0 mg/kg/injection, schedule: Q04DX003 (ip), vehicle: saline with Tween-80 90 % of control | dose: 35.0 mg/kg/injection, schedule: Q04DX003 (ip), vehicle: saline 103 % of control | dose: 50.0 mg/kg/injection, schedule: Q04DX003 (ip), vehicle: saline with Tween-80 121 % of control

Cc1cc(N2C(=O)CSC2=S)ccc1Br
inactive: [6] 104 % of control | [7] 96 % of control | [8] 93 % of control | [9] 93 % of control | [10] 104 % of control

CC(C)C1=CC23CCC4C(C)(C(=O)Cl)CCCC4(C)C2CC1C1(Cl)C(=O)OC(=O)C31Cl (stereo unspecified)
inactive: dose: 75.0 mg/kg/injection, schedule: Q01DX001 (ip), vehicle: other 94 % of control | dose: 150.0 mg/kg/injection, schedule: Q01DX001 (ip), vehicle: other 93 % of control | dose: 300.0 mg/kg/injection, schedule: Q01DX001 (ip), vehicle: other 89 % of control

CC(C)(C)NP(c1ccccc1)c1ccccc1
inactive: [11] 101 % of control | [12] 104 % of control | dose: 400.0 mg/kg/injection, schedule: Q01DX001 (ip), vehicle: saline 98 % of control

CCOC(=O)CCCc1c[nH]c2ccccc12
inactive: [6] 101 % of control | [7] 95 % of control | [8] 101 % of control | [9] 100 % of control | dose: 400.0 mg/kg/injection, schedule: Q01DX009 (ip), vehicle: saline with Tween-80 102 % of control | [10] 95 % of control

C=CCOCC(O)CNCCCOC (stereo unspecified)
inactive: dose: 100.0 mg/kg/injection, schedule: Q01DX009 (ip), vehicle: saline 107 % of control | [13] 96 % of control | dose: 200.0 mg/kg/injection, schedule: Q01DX009 (ip), vehicle: saline 98 % of control | [14] 98 % of control

O=c1[nH]c(=S)[nH]cc1CN(CCO)CCO
inactive: dose: 50.0 mg/kg/injection, schedule: Q01DX001 (ip), vehicle: saline 97 % of control | [11] 90 % of control | [12] 95 % of control

C=CC1(C)CO1 (stereo unspecified)
inactive: [13] 93 % of control | [14] 112 % of control | dose: 400.0 mg/kg/injection, schedule: Q04DX003 (ip), vehicle: saline 96 % of control
